Results as given in patent publication US20180155344A1, “TRICYCLIC PIPERIDINE COMPOUNDS” (ACTELION PHARMACEUTICALS LTD, priority 2015, published 2018).

Molecular target: T1, human TPH1 (Homo sapiens, UniProt P17752)
T1 sequence (P17752 1-444): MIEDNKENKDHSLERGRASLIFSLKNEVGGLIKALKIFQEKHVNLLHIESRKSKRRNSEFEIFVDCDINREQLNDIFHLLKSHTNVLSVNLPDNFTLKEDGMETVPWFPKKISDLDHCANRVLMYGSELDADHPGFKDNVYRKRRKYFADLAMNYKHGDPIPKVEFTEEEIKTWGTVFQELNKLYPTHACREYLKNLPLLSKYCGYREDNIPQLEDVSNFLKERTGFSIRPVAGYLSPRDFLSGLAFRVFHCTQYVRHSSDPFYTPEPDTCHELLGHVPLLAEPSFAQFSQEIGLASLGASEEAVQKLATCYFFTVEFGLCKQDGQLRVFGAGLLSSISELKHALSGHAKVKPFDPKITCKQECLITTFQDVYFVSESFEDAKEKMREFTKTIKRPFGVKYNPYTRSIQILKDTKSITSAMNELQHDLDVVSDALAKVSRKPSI
Test: biochemical
Procedure, shortened: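 Inhibition is derived from 5-hydroxy-L-tryptophan fluorescence (540 nm emission, 300 nm excitation) after perchloric acid stop, relative to DMSO vehicle. Recombinant full-length human enzyme (40-80 nM) reacts with 40 μM tryptophan plus 100 μM methyltetrahydropterin, pH 7.6 Tris/DTT/catalase, 15° C, 60 min.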

For `O=C(COc1ccc(CN2CCOCC2)cc1Cl)N1CCc2nc3cc(C(F)(F)F)ccn3c2C1c1ccc(F)cc1` (stereo not shown) [Example 3.29.2, 2-(2-chloro-4-(morpholinomethyl)phenoxy)-1-(1-(4-fluorophenyl)-7-(trifluoromethyl)-3,4-dihydroimidazo[1,2-a:5,4-c′]dipyridin-2(1H)-yl)ethan-1-one], the IC50 was 202 nM.

For `O=C(COc1ccc2ccccc2c1)N1CCc2nc3cc(C(F)(F)F)ccn3c2C1c1ccc(Cl)cc1` (stereo not shown) [Example 3.30.1, 1-(1-(4-chlorophenyl)-7-(trifluoromethyl)-3,4-dihydroimidazo[1,2-a:5,4-c′]dipyridin-2(1H)-yl)-2-(naphthalen-2-yloxy)ethan-1-one], the IC50 was 59 nM.

In the case of `O=C(COc1ccc(CN2CCOCC2)cc1Cl)N1CCc2nc3cc(C(F)(F)F)ccn3c2C1c1ccc(Cl)cc1` (stereo not shown) [Example 3.30.2, 2-(2-chloro-4-(morpholinomethyl)phenoxy)-1-(1-(4-chlorophenyl)-7-(trifluoromethyl)-3,4-dihydroimidazo[1,2-a:5,4-c′]dipyridin-2(1H)-yl)ethan-1-one], the IC50 is reported as 20 nM.

With `COc1cccc(C2c3c(nc4cc(C(F)(F)F)ccn34)CCN2C(=O)COc2ccc3ccccc3c2)c1` (stereo not shown) [Example 3.32.1, 1-(1-(3-methoxyphenyl)-7-(trifluoromethyl)-3,4-dihydroimidazo[1,2-a:5,4-c′]dipyridin-2(1H)-yl)-2-(naphthalen-2-yloxy)ethan-1-one] the IC50 was 228 nM.

With `Cc1cc(C2c3c(nc4cc(C(F)(F)F)ccn34)CCN2C(=O)COc2ccc3ccccc3c2)ccc1F` (stereo not shown) [Example 3.33.1, 1-(1-(4-fluoro-3-methylphenyl)-7-(trifluoromethyl)-3,4-dihydroimidazo[1,2-a:5,4-c′]dipyridin-2(1H)-yl)-2-(naphthalen-2-yloxy)ethan-1-one] the IC50 was 127 nM.

With `Cc1cc(C2c3c(nc4cc(C(F)(F)F)ccn34)CCN2C(=O)COc2ccc(CN3CCOCC3)cc2Cl)ccc1F` (stereo not shown) [Example 3.33.2, 2-(2-chloro-4-(morpholinomethyl)phenoxy)-1-(1-(4-fluoro-3-methylphenyl)-7-(trifluoromethyl)-3,4-dihydroimidazo[1,2-a:5,4-c′]dipyridin-2(1H)-yl)ethan-1-one] the IC50 was 110 nM.

In the case of `O=C(COc1ccc2ccccc2c1)N1CCc2nc3cc(C(F)(F)F)ccn3c2C1c1ccc(F)c(F)c1` (stereo not shown) [Example 3.34.1, 1-(1-(3,4-difluorophenyl)-7-(trifluoromethyl)-3,4-dihydroimidazo[1,2-a:5,4-c′]dipyridin-2(1H)-yl)-2-(naphthalen-2-yloxy)ethan-1-one], the IC50 is reported as 486 nM.

Work on `O=C(COc1ccc(CN2CCOCC2)cc1Cl)N1CCc2nc3cc(C(F)(F)F)ccn3c2C1c1ccc(F)c(F)c1` (stereo not shown) [Example 3.34.2, 2-(2-chloro-4-(morpholinomethyl)phenoxy)-1-(1-(3,4-difluorophenyl)-7-(trifluoromethyl)-3,4-dihydroimidazo[1,2-a:5,4-c′]dipyridin-2(1H)-yl)ethan-1-one] yielded an IC50 of 242 nM.

Compound `O=C(COc1ccc2ccccc2c1)N1CCc2nc3cc(C(F)(F)F)ccn3c2C1c1ccccc1F` (stereo not shown) [Example 3.35.1, 1-(1-(2-fluorophenyl)-7-(trifluoromethyl)-3,4-dihydroimidazo[1,2-a:5,4-c′]dipyridin-2(1H)-yl)-2-(naphthalen-2-yloxy)ethan-1-one] has an IC50 of 17 nM.

With `O=C(COc1ccc(CN2CCOCC2)cc1Cl)N1CCc2nc3cc(C(F)(F)F)ccn3c2C1c1ccccc1F` (stereo not shown) [Example 3.35.2, 2-(2-chloro-4-(morpholinomethyl)phenoxy)-1-(1-(2-fluorophenyl)-7-(trifluoromethyl)-3,4-dihydroimidazo[1,2-a:5,4-c′]dipyridin-2(1H)-yl)ethan-1-one] the IC50 was 16 nM.

With `Cn1nc(OCC(=O)N2CCc3nc4cc(C(F)(F)F)ccn4c3C2c2ccccc2F)c(Cl)c1C(F)(F)F` (stereo not shown) [Example 3.35.3, 2-((4-chloro-1-methyl-5-(trifluoromethyl)-1H-pyrazol-3-yl)oxy)-1-(1-(2-fluorophenyl)-7-(trifluoromethyl)-3,4-dihydroimidazo[1,2-a:5,4-c′]dipyridin-2(1H)-yl)ethan-1-one] the IC50 was 338 nM.

In the case of `O=C(COc1ccc2ccccc2c1)N1CCc2nc3cc(C(F)(F)F)ccn3c2C1c1cccnc1` (stereo not shown) [Example 3.36.1, 2-(naphthalen-2-yloxy)-1-(1-(pyridin-3-yl)-7-(trifluoromethyl)-3,4-dihydroimidazo[1,2-a:5,4-c′]dipyridin-2(1H)-yl)ethan-1-one], the IC50 is reported as 208 nM.

In the case of `O=C(COc1ccc(CN2CCOCC2)cc1Cl)N1CCc2nc3cc(C(F)(F)F)ccn3c2C1c1cccnc1` (stereo not shown) [Example 3.36.2, 2-(2-chloro-4-(morpholinomethyl)phenoxy)-1-(1-(pyridin-3-yl)-7-(trifluoromethyl)-3,4-dihydroimidazo[1,2-a:5,4-c′]dipyridin-2(1H)-yl)ethan-1-one], the IC50 is reported as 488 nM.

`O=C(COc1ccc(CN2CCOCC2)cc1Cl)N1CCc2nc3cc(C(F)(F)F)ccn3c2C1c1ccc(Cl)nc1` (stereo not shown) [Example 3.37.1, 2-(2-chloro-4-(morpholinomethyl)phenoxy)-1-(1-(6-chloropyridin-3-yl)-7-(trifluoromethyl)-3,4-dihydroimidazo[1,2-a:5,4-c′]dipyridin-2(1H)-yl)ethan-1-one] was tested, and the IC50 was 50 nM.

With `O=C(COc1ccc2ccccc2c1)N1CCc2nc3cc(C(F)(F)F)ccn3c2C1c1ccc(Cl)nc1` (stereo not shown) [Example 3.37.2, 1-(1-(6-chloropyridin-3-yl)-7-(trifluoromethyl)-3,4-dihydroimidazo[1,2-a:5,4-c′]dipyridin-2(1H)-yl)-2-(naphthalen-2-yloxy)ethan-1-one] the IC50 was 57 nM.

`Cc1ccc(C2c3c(nc4cc(C(F)(F)F)ccn34)CCN2C(=O)COc2ccc3ccccc3c2)cn1` (stereo not shown) [Example 3.38.1, 1-(1-(6-methylpyridin-3-yl)-7-(trifluoromethyl)-3,4-dihydroimidazo[1,2-a:5,4-c′]dipyridin-2(1H)-yl)-2-(naphthalen-2-yloxy)ethan-1-one] was tested, and the IC50 was 26 nM.

`Cc1ccc(C2c3c(nc4cc(C(F)(F)F)ccn34)CCN2C(=O)COc2ccc(CN3CCOCC3)cc2Cl)cn1` (stereo not shown) [Example 3.38.2, 2-(2-chloro-4-(morpholinomethyl)phenoxy)-1-(1-(6-methylpyridin-3-yl)-7-(trifluoromethyl)-3,4-dihydroimidazo[1,2-a:5,4-c′]dipyridin-2(1H)-yl)ethan-1-one] showed an IC50 of 92 nM.

For `COc1cc(C)c(C2c3c(nc4cc(C(F)(F)F)ccn34)CCN2C(=O)COc2ccc(CN3CCOCC3)cc2Cl)cn1` (stereo not shown) [Example 3.39.1, 2-(2-chloro-4-(morpholinomethyl)phenoxy)-1-(1-(6-methoxy-4-methylpyridin-3-yl)-7-(trifluoromethyl)-3,4-dihydroimidazo[1,2-a:5,4-c′]dipyridin-2(1H)-yl)ethan-1-one], the IC50 was 46 nM.

Compound `Cc1cc(C2c3c(nc4cc(C(F)(F)F)ccn34)CCN2C(=O)COc2ccc3ccccc3c2)n(C)n1` (stereo not shown) [Example 3.40.1, 1-(1-(1,3-dimethyl-1H-pyrazol-5-yl)-7-(trifluoromethyl)-3,4-dihydroimidazo[1,2-a:5,4-c′]dipyridin-2(1H)-yl)-2-(naphthalen-2-yloxy)ethan-1-one] has an IC50 of 432 nM.

`O=C(COc1ccc2ccccc2c1)N1CCc2nc3cc(C(F)(F)F)ccn3c2C1c1cnn(-c2ccccc2)c1` (stereo not shown) [Example 3.41.1, 2-(naphthalen-2-yloxy)-1-(1-(1-phenyl-1H-pyrazol-4-yl)-7-(trifluoromethyl)-3,4-dihydroimidazo[1,2-a:5,4-c′]dipyridin-2(1H)-yl)ethan-1-one] gave an IC50 of 328 nM.

`O=C(COc1ccc(CN2CCOCC2)cc1Cl)N1CCc2nc3cc(C(F)(F)F)ccn3c2C1c1cnn(-c2ccccc2)c1` (stereo not shown) [Example 3.41.2, 2-(2-chloro-4-(morpholinomethyl)phenoxy)-1-(1-(1-phenyl-1H-pyrazol-4-yl)-7-(trifluoromethyl)-3,4-dihydroimidazo[1,2-a:5,4-c′]dipyridin-2(1H)-yl)ethan-1-one] showed an IC50 of 24 nM.

For `Cc1c(CN2CCOCC2)ccc(OCC(=O)N2CCc3nc4cc(C(F)(F)F)ccn4c3C2c2cnn(-c3ccccc3)c2)c1C` (stereo not shown) [Example 3.41.3, 2-(2,3-dimethyl-4-(morpholinomethyl)phenoxy)-1-(1-(1-phenyl-1H-pyrazol-4-yl)-7-(trifluoromethyl)-3,4-dihydroimidazo[1,2-a:5,4-c′]dipyridin-2(1H)-yl)ethan-1-one], the IC50 was 68 nM.

For `Cc1csc(C2c3c(nc4cc(C(F)(F)F)ccn34)CCN2C(=O)COc2ccc3ccccc3c2)n1` (stereo not shown) [Example 3.42.1, 1-(1-(4-methylthiazol-2-yl)-7-(trifluoromethyl)-3,4-dihydroimidazo[1,2-a:5,4-c′]dipyridin-2(1H)-yl)-2-(naphthalen-2-yloxy)ethan-1-one], the IC50 was 260 nM.

`Cc1csc(C2c3c(nc4cc(C(F)(F)F)ccn34)CCN2C(=O)COc2ccc(CN3CCOCC3)cc2Cl)n1` (stereo not shown) [Example 3.42.2, 2-(2-chloro-4-(morpholinomethyl)phenoxy)-1-(1-(4-methylthiazol-2-yl)-7-(trifluoromethyl)-3,4-dihydroimidazo[1,2-a:5,4-c′]dipyridin-2(1H)-yl)ethan-1-one] was tested, and the IC50 was 427 nM.

`O=C(COc1ccc(CN2CCOCC2)cc1Cl)N1CCc2nc3cc(C(F)(F)F)ccn3c2C1c1ncc2ccccn12` (stereo not shown) [Example 3.43.1, 2-(2-chloro-4-(morpholinomethyl)phenoxy)-1-(1-(imidazo[1,5-a]pyridin-3-yl)-7-(trifluoromethyl)-3,4-dihydroimidazo[1,2-a:5,4-c′]dipyridin-2(1H)-yl)ethan-1-one] was tested, and the IC50 was 130 nM.
